Columns and labels:
[1] = tested on: mouse model of diet-induced obesity (DIO); assay: Long term effect in mice fed with DIO regimen; assay type: in vivo, male Swiss mice
Experimental: Figure 3 Effect of OBE-2008 administered before night phase on food consumption (left) and body weight (right) in mice. Red = control; dark green = dose of 10 mg/kg/day; light green = dose of 25 mg/kg/day. Number of mice per group n = 10. Statistical comparison between control and treated group were conducted by Dunnett’s tests. Asterisks (*) indicate p values versus control. A p value of<0.05 was considered to show a statistically significant difference.
The anti-obesity effect of OBE lead in a diet induced obesity model (45% kcal from lipids and 20% from proteins, reference 824053 from Special Diet Services, UK) was evaluated following daily oral administration in mice for 63 days. The study involved 3 groups of 10 male Swiss mice; Group 1: water; Group 2: OBE lead at 10 mg/kg/day; Group 3: OBE lead at 25 mg/kg/day. Animal were weighted daily. Food consumption was measured daily for each animal, except during fasted periods. For all groups, the food was given ad libitum. Body weights are given as means ± SEM (Standard Error of the Mean). The effects of test items on body weight and food consumption were expressed as absolute values and compared with those of the vehicle using multiple comparison procedure with a Dunnett’s test in case of significance (P≤0.05).

[2] = tested on: fasted mice given oral fat overload; assay: Effect on triglycerides absorption in mouse; assay type: in vivo; details: for decrease of fatty acids absorption (plasma triglycerides AUC): up to 6 hours, p<0.05
Experimental: (§1) Figure 4 The mechanism-based efficacy of OBE-2008 on enteropeptidase was evaluated based on triglycerides (left) and amino acids (right) absorption. Red = control; dark green = dose of 5 mg/kg; light green = dose of 50 mg/kg. Number of mice per group n = 3 (right) for amino acids, and n = 8 (left) for triglycerides. Statistical comparison between control and treated group were conducted by two-sided unpaired Student’s tests. Asterisks (*) indicate p values versus control. A p value of<0.05 was considered to show a statistically significant difference.
The aim of the study was to evaluate the duration of effect of OBE lead on triglycerides absorption in mice after oral administration. The study involved 3 groups of 8 male animals each. Group 1: water; Group 2: OBE lead at 5 mg/kg; Group 3: OBE lead at 50 mg/kg. On the day of the test, all animals were given an oral fat overload. The preparation to be administered (OBE lead or its vehicle) was diluted at 1/100 in 10 mL of clinoleic acid 20. In all animals, about 60 µL were sampled via retro orbital sinus at time points: before dosing, 1, 2, 3, 5 and 6 hours post-dosing. The blood samples were prepared within 30 minutes of sampling by centrifugation for 10 minutes at 1500 g. All plasma samples were dosed for triglycerides. The effects of test items on triglycerides absorption were conducted by two-side unpaired Student’s test. A p value of<0.05 was considered to show a statistically significant difference.

[3] = tested on: fasted mice given radiolabeled proteins; assay: Effect on 14C-protein absorption in mouse; assay type: in vivo, male Swiss mice; details: 240 minutes, not statistically significant
Experimental: as §1
The aim of the study was to evaluate the duration of effect of OBE lead on absorption of ^14C-proteins after oral administration in mice. Fifteen male Swiss mice were divided in 3 groups; Group 1: water and ^14C-proteins; Group 2: OBE lead 5 mg/Kg and ^14C-proteins; Group 3: OBE lead 50 mg/Kg and ^14C-proteins. A preparation containing 5 ml of Clinoleic 20 (Baxter Ref DDB9500) with 1 g of glucose (Sigma; ref:G8270) and 1 g of casein (Sigma; ref: C3400) was prepared. […] About 4 ml Pico-fluor 40 was added and after shaking, the total radioactivity contained within the different samples was determined by liquid scintillation using a Packard 1900 CA spectrometer equipped with an external standard system. […]

[4] = Pharmacokinetics in mice, IV and oral; assay type: in vivo, male Swiss mice
Experimental: Figure 5 Pharmacokinetics of OBE-2008 in mice following intravenous (1 mg/kg, dark blue) and oral (10 mg/kg, light blue) dosing. Number of mice per group n = 3.
This study aimed to determine the fate of OBE lead in mice after intravenous (IV; 1 mg/kg) and oral (PO; 10 mg/kg) administration. Blood was taken from two animals at each sampling time from T = 0 to T = 6 h after IV administration, and from T = 0 to T = 24 h after oral administration. Samples were analyzed for OBE lead using LC/MS/MS methodology. For each IV and PO routes, three male Swiss mice aged 10-weeks were included in the experiment. The animals OBE IV-1, OBE IV-2 and OBE IV-3 were treated at T = 0 with 1 mg/kg of OBE lead using 2 mL/kg. The injection was performed in the jugular vein under isoflurane anaesthesia. The animals OBE PO-1, OBE PO-2 and OBE PO-3 were treated at T = 0 with 10 mg/kg of OBE lead using 5 mL/kg. The solution to be administered was delivered by gavage, using a gastric cannula. About 50–75 µL of blood were sampled from the retro orbital sinus. The blood was immediately centrifuged at 3500 rpm (+4°C) for 5 minutes. Protein precipitation was conducted by adding a volume of 400 µL of acetonitrile to 10 µL of plasma in Teflon vials. After centrifugation, an aliquot of the supernatant (+4°C auto-sampler; injected volume = 10 µL) was immediately analyzed by LC/MS/MS (column: HILIC Silica 5 µM 2.1×150 mm; isocratic elution using an ACN/pH3 buffer (70/30, V/V) eluant containing 1% formic acid; flow rate = 0.25 mL/min. The MS system operated in the ESI mode, and the ionization source was heated at 350°C). Chromatographic peaks areas were than calculated and plotted against time.

CC(=O)N[C@@H](C)C(=O)N[C@@H](Cc1ccccc1)C(=O)N[C@@H](CCCCN)B1O[C@@H]2C[C@@H]3C[C@@H](C3(C)C)[C@]2(C)O1 [OBE-2008]
side effects such as steatorrhea or diarrhea ([1]; long-term oral treatment): no side effects
reduction of weight gain relative to control group ([1]; oral 10 mg/kg daily, up to 9 weeks): 6%
reduction of weight gain relative to control group ([1]; oral 25 mg/kg daily, up to 9 weeks): 10%
effect on food consumption ([1]; oral daily 10 and 25 mg/kg, up to 9 weeks, food ad libitum): no effect
maximum level of triglycerides in plasma after 1 hour vs control ([2]; 5 mg/kg and 50 mg/kg oral): substantially lower than in the control group
decrease of fatty acids absorption (plasma triglycerides AUC) ([2]; 5 mg/kg oral): 33%
decrease of fatty acids absorption (plasma triglycerides AUC) ([2]; 50 mg/kg oral): 32%
decrease of total protein absorption (AUC) ([3]; 5 mg/kg oral): 17%
decrease of total protein absorption (AUC) ([3]; 50 mg/kg oral): 22%
detectability in plasma ([4]; intravenous 1 mg/kg): undetectable after 2 hours
plasma half-life ([4]; intravenous 1 mg/kg): minutes
calculated bioavailability ([4]; oral 10 mg/kg vs intravenous 1 mg/kg): 2–3%

— PMC3504148, “Enteropeptidase: A Gene Associated with a Starvation Human Phenotype and a Novel Target for Obesity Treatment” (PLoS ONE, 2012)
